Broadly, the IC50 is the point on the concentration scale where inhibition reaches its midpoint. Lower therefore signals higher potency.

The target in experiment [1] is T1, Kv1.3 potassium channel (Homo sapiens, UniProt P22001).
T1 construct: expressed in transfected cells
Briefly: Kv1.3 potassium channel blocker activity, automated whole-cell patch clamp (Patchliner) in CHO-K1 cells stably expressing Kv1.3. The class given is cell-based. Conditions: 30 nM-100 μM. The method, boiled down:
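Whole-cell automated patch clamp in CHO-K1 cells, pH 7.4 external/7.2 internal; 100 ms steps from −90 to +40 mV at 0.1 Hz, 20-pulse trains. Cumulative 30 nM–100 μM on one cell, ≤10 s per concentration; last-pulse current normalized to control, IC50 from Hill fit.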

Experiment [2] concerns the target T2, hERG channel (Homo sapiens, UniProt Q12809).
T2 construct: expressed in transfected cells
The experiment in a line: hERG electrophysiology, automated whole-cell patch clamp (Patchliner) in CHO-K1 cells stably expressing hERG. The class given is cell-based. Conditions: 30 nM-100 μM. Here is the method:
This assay is used to evaluate the disclosed compounds' inhibition activities against the hERG channel.
CHO-K1 cells stably expressing hERG were grown in Ham's F-12 Medium with glutamine containing 10% heat-inactivated FBS, 1% penicillin/streptomycin, hygromycin (100 μg/ml) and G418 (100 μg/ml). Cells were grown in culture flasks at 37° C. in a 5% CO2-humidified incubator.
The cells were bathed in an extracellular solution containing 140 mM NaCl, 4 mM KCl, 2 mM CaCl2), 1 mM MgCl2, 5 mM Glucose, 10 mM HEPES; pH adjusted to 7.4 with NaOH; 295-305 mOsm. The internal solution contained 50 mM KCl, 10 mM NaCl, 60 mM KF, 20 mM EGTA, 10 mM HEPES; pH adjusted to 7.2 with KOH; 285 mOsm. All compounds were dissolved in DMSO at 30 mM. Compound stock solutions were freshly diluted with external solution to concentrations of 30 nM, 100 nM, 300 nM, 1 μM, 3 μM, 10 μM, 30 μM and 100 μM. The highest content of DMSO (0.3%) was present in 100 μM.
The voltage protocol (see Table B) was designed to simulate voltage changes during a cardiac action potential with a 300 ms depolarization to +20 mV (analogous to the plateau phase of the cardiac action potential), a repolarization for 300 ms to −50 mV (inducing a tail current) and a final step to the holding potential of −80 mV. The pulse frequency was 0.3 Hz. Control (compound-free) and compound pulse trains for each compound concentration applied contained 70 pulses.
Whole-cell current recordings and compound application were enabled by means of an automated patch clamp platform Patchliner (Nanion). EPC 10 patch clamp amplifier (HEKA) along with Patchmaster software (HEKA Elektronik Dr. Schulze GmbH) was used for data acquisition. Data were sampled at 10 kHz without filtering. Increasing compound concentrations were applied consecutively to the same cell without washouts in between.
AUC and PEAK values were obtained with Patchmaster (HEKA Elektronik Dr. Schulze GmbH). To determine IC50 the last single pulse in the pulse train corresponding to a given compound concentration was used. Obtained AUC and PEAK values in the presence of compound were normalized to control values in the absence of compound. Using Origin (OridinLab), IC50 was derived from data fit to Hill equation: Icompound/Icontrol=(100−A)/(1+([compound]/IC50)nH)+A, where IC50 is the concentration at which current inhibition is half-maximal, [compound] is the applied compound concentration, A is the fraction of current that is not blocked and nH is the Hill coefficient.
For orientation: hERG is a cardiac potassium channel; its block is linked to QT prolongation.

Some results are limits rather than exact numbers.

T2 sequence (Q12809 whole entry): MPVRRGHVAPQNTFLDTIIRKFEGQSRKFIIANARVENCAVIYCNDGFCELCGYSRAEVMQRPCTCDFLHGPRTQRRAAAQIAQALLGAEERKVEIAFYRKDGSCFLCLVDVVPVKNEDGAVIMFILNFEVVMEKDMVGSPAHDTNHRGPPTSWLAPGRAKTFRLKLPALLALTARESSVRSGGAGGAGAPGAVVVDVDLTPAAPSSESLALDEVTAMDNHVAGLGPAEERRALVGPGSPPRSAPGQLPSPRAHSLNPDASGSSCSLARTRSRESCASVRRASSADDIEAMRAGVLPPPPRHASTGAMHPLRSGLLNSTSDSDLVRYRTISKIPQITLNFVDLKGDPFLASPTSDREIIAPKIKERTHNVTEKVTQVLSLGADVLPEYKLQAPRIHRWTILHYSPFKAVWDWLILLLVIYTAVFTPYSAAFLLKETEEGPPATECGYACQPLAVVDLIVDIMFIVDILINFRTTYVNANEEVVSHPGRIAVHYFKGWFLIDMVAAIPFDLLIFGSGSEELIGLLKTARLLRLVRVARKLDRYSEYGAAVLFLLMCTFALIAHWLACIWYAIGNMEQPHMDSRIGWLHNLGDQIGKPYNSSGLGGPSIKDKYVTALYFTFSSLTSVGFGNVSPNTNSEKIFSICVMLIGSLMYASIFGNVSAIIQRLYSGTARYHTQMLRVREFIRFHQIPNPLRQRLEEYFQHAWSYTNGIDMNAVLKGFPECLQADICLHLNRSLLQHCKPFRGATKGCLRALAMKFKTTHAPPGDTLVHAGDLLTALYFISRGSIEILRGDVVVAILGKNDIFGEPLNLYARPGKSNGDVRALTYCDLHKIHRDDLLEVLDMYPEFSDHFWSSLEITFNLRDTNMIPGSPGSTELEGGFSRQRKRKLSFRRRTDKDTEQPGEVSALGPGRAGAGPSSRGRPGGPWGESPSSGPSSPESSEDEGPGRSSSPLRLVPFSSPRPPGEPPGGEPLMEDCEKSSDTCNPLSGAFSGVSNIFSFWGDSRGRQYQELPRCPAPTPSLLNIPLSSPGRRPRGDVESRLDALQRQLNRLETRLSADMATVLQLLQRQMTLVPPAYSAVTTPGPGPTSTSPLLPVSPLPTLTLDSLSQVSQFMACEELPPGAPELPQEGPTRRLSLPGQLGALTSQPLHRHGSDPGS
T1 sequence (P22001 whole entry): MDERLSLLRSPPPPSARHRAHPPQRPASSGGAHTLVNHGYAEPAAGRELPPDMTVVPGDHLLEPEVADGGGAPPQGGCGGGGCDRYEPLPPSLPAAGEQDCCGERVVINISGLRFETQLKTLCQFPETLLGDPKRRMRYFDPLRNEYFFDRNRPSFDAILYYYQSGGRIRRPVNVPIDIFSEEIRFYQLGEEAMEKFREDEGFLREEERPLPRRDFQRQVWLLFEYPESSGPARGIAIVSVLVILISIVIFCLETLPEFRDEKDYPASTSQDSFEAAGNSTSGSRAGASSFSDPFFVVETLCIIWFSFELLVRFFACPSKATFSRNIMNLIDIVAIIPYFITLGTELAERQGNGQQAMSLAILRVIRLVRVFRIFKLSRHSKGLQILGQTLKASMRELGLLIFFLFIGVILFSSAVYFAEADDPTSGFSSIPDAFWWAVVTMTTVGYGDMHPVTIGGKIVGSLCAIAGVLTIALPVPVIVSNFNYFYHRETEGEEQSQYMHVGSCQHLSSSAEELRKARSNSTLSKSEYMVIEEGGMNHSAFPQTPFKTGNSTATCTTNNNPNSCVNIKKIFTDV

As for `O=C([C@H]1C[C@@H](O)[C@@H](O)C1)N1CC[C@]2(C1)C(=O)Nc1cc(Cl)c(Cl)cc12` [Compound 102, (3S)-5,6-dichloro-1′-[(1R,3R,43)-3,4-dihydroxycyclopentanecarbonyl]-1H-spiro[indole-3,3′-pyrrolidin]-2-one], the figures for the IC50 in experiment [1] and in experiment [2] were less than 1 µM and greater than 100 µM, respectively.

As to `C[C@H]1NCC[C@@H]1C(=O)N1CC[C@]2(C1)C(=O)Nc1cc(Cl)c(Cl)cc12` (relative stereo) [Compound 40, (S)-5,6-dichloro-1′-((2S,3R)-rel-2-methylpyrrolidine-3-carbonyl)spiro[indoline-3,3′-pyrrolidin]-2-one isomer 2], the half-inhibitory concentration (IC50) in experiment [1] was less than 0.3 µM; in experiment [2] it was greater than 100 µM.

Turning to `O=C(C[C@H]1CCNC1)N1CC[C@]2(C1)C(=O)Nc1cc(Cl)c(Cl)cc12` [Compound 62, (S)-5,6-dichloro-1′-(2-((R)-pyrrolidin-3-yl)acetyl)spiro[indoline-3,3′-pyrrolidin]-2-one], the figures for the half-inhibitory concentration (IC50) in experiment [1] and in experiment [2] were less than 0.3 µM and greater than 100 µM, respectively.

Regarding `O=C([C@@H]1CC[C@@H](O)[C@H](O)C1)N1CC[C@]2(C1)C(=O)Nc1cc(Cl)c(Cl)cc12` (single isomer, unassigned; isomer 2) [Compound 104], the IC50 is less than 0.3 µM in experiment [1] and greater than 100 µM in experiment [2].

In the case of `Cc1[nH]ncc1C(=O)N1CC[C@]2(C1)C(=O)Nc1cc(Cl)c(Cl)cc12` [Compound 71, (S)-5,6-dichloro-1′-(5-methyl-1H-pyrazol-4-carbonyl)spiro[indoline-3,3′-pyrrolidin]-2-one], the IC50 is less than 1 µM in experiment [1] and greater than 30 µM in experiment [2].

In the case of `O=C([C@@H]1C[C@@H](O)[C@@H](O)C1)N1CC[C@]2(C1)C(=O)Nc1cc(Cl)c(Cl)cc12` [Compound 101, (3S)-5,6-dichloro-1′-[(1S,3R,4S)-3,4-dihydroxycyclopentanecarbonyl]-1H-spiro[indole-3,3′-pyrrolidin]-2-one], the values for the IC50 in experiment [1] and in experiment [2] were less than 0.3 µM and greater than 100 µM, respectively.

Turning to `O=C(C1CCN(CCO)C1)N1CC[C@]2(C1)C(=O)Nc1cc(Cl)c(Cl)cc12` (single isomer, unassigned; isomer 1) [Compound 37], the half-inhibitory concentration (IC50) was less than 0.3 µM in experiment [1] and greater than 100 µM in experiment [2].

For `O=C([C@H]1CCNC1)N1CC[C@]2(C1)C(=O)Nc1cc(Cl)c(Cl)cc12` [Compound 15, (S)-5,6-dichloro-1′-((S)-pyrrolidine-3-carbonyl)spiro[indoline-3,3′-pyrrolidin]-2-one], the half-inhibitory concentration (IC50) is less than 1 µM in experiment [1] and greater than 100 µM in experiment [2].

As to `Cc1cc2c(cc1Cl)[C@]1(CCN(C(=O)CO)C1)C(=O)N2` [Compound 120, (S)-5-chloro-1′-(2-hydroxyacetyl)-6-methylspiro[indoline-3,3′-pyrrolidin]-2-one], the IC50 is less than 3 µM in experiment [1] and greater than 100 µM in experiment [2].

Turning to `O=C(C1CNC1)N1CC[C@]2(C1)C(=O)Nc1cc(Cl)c(Cl)cc12` [Compound 8, (S)-1′-(azetidine-3-carbonyl)-5,6-dichlorospiro[indoline-3,3′-pyrrolidin]-2-one], the values for the IC50 in experiment [1] and in experiment [2] were less than 1 µM and greater than 100 µM, respectively.

As to `O=C([C@H]1CN[C@@H](CO)C1)N1CC[C@]2(C1)C(=O)Nc1cc(Cl)c(Cl)cc12` [Compound 116, (S)-5,6-dichloro-1′-((3R,5R)-5-(hydroxymethyl)pyrrolidine-3-carbonyl)spiro[indoline-3,3′-pyrrolidin]-2-one], the 50% inhibitory concentration (IC50) in experiment [1] is less than 0.1 µM; in experiment [2], greater than 100 µM.

Take `O=C([C@H]1CC[C@H](O)C1)N1CC[C@]2(C1)C(=O)Nc1cc(Cl)c(Cl)cc12` (single isomer, unassigned; isomer 1) [Compound 63]: the results for the IC50 in experiment [1] and in experiment [2] were less than 1 µM and greater than 30 µM, respectively.

Regarding `O=C(C1C[C@@H](O)[C@H](O)C1)N1CC[C@]2(C1)C(=O)Nc1cc(Cl)c(Cl)cc12` (single isomer, unassigned; isomer 1) [Compound 105], the results for the half-inhibitory concentration (IC50) in experiment [1] and in experiment [2] were less than 0.3 µM and greater than 100 µM, respectively.

Turning to `O=C(N1CC[C@]2(C1)C(=O)Nc1cc(Cl)c(Cl)cc12)[C@]1(F)CCCNC1` [Compound 49, (S)-5,6-dichloro-1′-((S)-3-fluoropiperidine-3-carbonyl)spiro[indoline-3,3′-pyrrolidin]-2-one], the IC50 is less than 0.3 µM in experiment [1] and greater than 3 µM in experiment [2].

For the molecule `O=C([C@@H]1CCN(CCO)C1)N1CC[C@]2(C1)C(=O)Nc1cc(Cl)c(Cl)cc12` (single isomer, unassigned; isomer 2) [Compound 38], the figures for the IC50 in experiment [1] and in experiment [2] were less than 0.3 µM and greater than 100 µM, respectively.

With `Cc1c(Cl)c(Cl)cc2c1NC(=O)[C@@]21CCN(C(=O)CO)C1` [Compound 129, (3S)-5,6-dichloro-1′-(2-hydroxyacetyl)-7-methyl-1H-spiro[indole-3,3′-pyrrolidin]-2-one], the IC50 was less than 0.3 µM in experiment [1] and greater than 100 µM in experiment [2].

`O=C([C@H]1CC[C@@](O)(CO)C1)N1CC[C@]2(C1)C(=O)Nc1cc(Cl)c(Cl)cc12` (relative stereo) [Compound 97, (S)-5,6-dichloro-1′-((1R,3R)-rel-3-hydroxy-3-(hydroxymethyl)cyclopentane-1-carbonyl)spiro[indoline-3,3′-pyrrolidin]-2-one isomer 1]: the half-maximal inhibitory concentration (IC50) in experiment [1] was less than 1 µM; in experiment [2], greater than 100 µM.

`O=C([C@@H]1CCCNC1)N1CC[C@]2(C1)C(=O)Nc1cc(Cl)c(Cl)cc12` [Compound 17, (S)-5,6-dichloro-1′-((R)-piperidine-3-carbonyl)spiro[indoline-3,3′-pyrrolidin]-2-one]: the IC50 was less than 0.3 µM in experiment [1] and greater than 100 µM in experiment [2].

Take `O=C1Nc2cc(Cl)c(Cl)cc2[C@]12CCN(C(=O)[C@H]1CC[C@H](O)CC1)C2` [Compound 52, (S)-5,6-dichloro-1′-((1r,4S)-4-hydroxycyclohexane-1-carbonyl)Spiro[indoline-3,3′-pyrrolidin]-2-one]: the concentration for half-maximal inhibition (IC50) is less than 1 µM in experiment [1] and greater than 30 µM in experiment [2].

On to `O=C(CO)N1CC[C@]2(C1)C(=O)Nc1c2cc(Cl)c(Cl)c1F` [Compound 128, (S)-5,6-dichloro-7-fluoro-1′-(2-hydroxyacetyl)spiro[indoline-3,3′-pyrrolidin]-2-one], for which the half-inhibitory concentration (IC50) is less than 0.3 µM in experiment [1] and greater than 100 µM in experiment [2].

In the case of `O=C([C@H]1CNC[C@H]1O)N1CC[C@]2(C1)C(=O)Nc1cc(Cl)c(Cl)cc12` (single isomer, unassigned) [Compound 2], the results for the half-inhibitory concentration (IC50) in experiment [1] and in experiment [2] were less than 0.3 µM and greater than 100 µM, respectively.

With `O=C([C@@H]1CN[C@H](CO)C1)N1CC[C@]2(C1)C(=O)Nc1cc(Cl)c(Cl)cc12` [Compound 113, (3S)-5,6-dichloro-1-[(3S,53)-5-(hydroxymethyl)pyrrolidine-3-carbonyl]-1H-spiro[indole-3,3-pyrrolidin]-2-one], the values for the half-maximal inhibitory concentration (IC50) in experiment [1] and in experiment [2] were less than 0.1 µM and greater than 100 µM, respectively.

In the case of `O=C1Nc2cc(Cl)c(Cl)cc2[C@]12CCN(C(=O)[C@H]1C[C@@](O)(CO)C1)C2` [Compound 94, (3S)-5,6-dichloro-1′-[(1s,3s)-3-hydroxy-3-(hydroxymethyl)cyclobutanecarbonyl]-1H-spiro[indole-3,3′-pyrrolidin]-2-one], the IC50 in experiment [1] was less than 1 µM; in experiment [2] it was greater than 100 µM.

On to `NCCC(=O)N1CC[C@]2(C1)C(=O)Nc1cc(Cl)c(Cl)cc12` [Compound 9, (S)-1′-(3-aminopropanoyl)-5,6-dichlorospiro[indoline-3,3′-pyrrolidin]-2-one], for which the 50% inhibitory concentration (IC50) in experiment [1] was less than 1 µM; in experiment [2], greater than 100 µM.

In the case of `O=C(CO)N1CC[C@]2(C1)C(=O)Nc1cc(Cl)c(Cl)cc12` [Compound 6, (S)-5,6-dichloro-1′-(2-hydroxyacetyl)spiro[indoline-3,3′-pyrrolidin]-2-one], the figures for the IC50 in experiment [1] and in experiment [2] were less than 1 µM and greater than 100 µM, respectively.

For `O=C1Nc2cc(Cl)c(Cl)cc2[C@]12CCN(C(=O)[C@H]1C[C@](O)(CO)C1)C2` [Compound 93, (3S)-5,6-dichloro-1′-[(1r,3r)-3-hydroxy-3-(hydroxymethyl)cyclobutanecarbonyl]-1H-spiro[indole-3,3′-pyrrolidin]-2-one], the IC50 in experiment [1] is less than 1 µM; in experiment [2], greater than 100 µM.

Values taken from patent publication US20240391926A1, “SPIROINDOLINONE COMPOUNDS AS Kv1.3 POTASSIUM SHAKER CHANNEL BLOCKERS” (D.E. Shaw Research, LLC, priority 2021, published 2024).
